# In article PMC6081437, “The potency of the broad spectrum bacteriocin, bactofencin A, against staphylococci is highly dependent on primary structure, N-terminal charge and disulphide formation” (Scientific Reports, 2018):
# Read-outs that look alike come from different tables or passages of the source. Bridge positions count the residues as written; N and C are the ends. Ends that are not written are not given here. Peptide text beside a SMILES is read from it.
# Key:
# S. aureus DPC5246 = format: cell-based, Staphylococcus aureus; details: for fold reduction in activity compared with bactofencin A (wild type): S. aureus DPC5246, agar well diffusion MIC
# Outline: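 Agar well diffusion assay: peptides in 50 mM sodium phosphate pH 6.8, 1-in-4 dilutions from 1000 µM stock (250 to 0.24 µM) applied to S. aureus DPC5246 indicator plates at 37 °C. MIC is the lowest concentration giving an inhibition zone, in triplicate; concentrations rounded to whole numbers.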
# [1] = test system: L. monocytogenes ATCC 23074; format: cell-based, Listeria monocytogenes
# Method: (§1) Peptides were resuspended at 1000 µM in 50 mM sodium phosphate buffer pH 6.8 and checked for purity by MALDI-TOF-MS. Peptides were serially diluted 1 in 4 to give a dilution series of 250, 62.50, 15.63, 3.91, 0.98 and 0.24 µM and assayed by the agar well diffusion assay described by Ryan et al.[19]. Briefly, 50 µl aliquots of each peptide concentration were plated on a S. aureus DPC5246 indicator plate and the plate incubated at 37 °C. Peptide activity (Minimum Inhibitory Concentration (MIC)) was taken as the lowest concentration of peptide to give a zone of inhibition. All assays were performed in triplicate. The dilution series values were rounded to the nearest whole number to give 1000, 250, 63, 16, 4, 1 and 0.25 µM and data is colour coded for ease of interpretation.
# (§2) Bactofencin R8Q and bactofencin R8K were synthesised as described above and their activity compared to bactofencin A against S. aureus DPC5246, Listeria innocua DPC3572 and L. monocytogenes ATCC 23074.
# Listeria innocua DPC3572 = format: cell-based
# Method: as §1, §2
# Listeria spp. = details: cell free supernatants of L plantarum ST31 against L. innocua and L. monocytogenes; cited from earlier work
# Excerpt: Todorov et al. (1999) previously described plantaricin ST31, a bacteriocin with an amino acid sequence determined to be KRKKHRXQVYNNGMPTGMYR, produced by a sourdough isolate Lactobacillus plantarum ST31, with a reported mass of 2755 + /− 0.3 Da[20]. Substitution of Cys for X results in a peptide with a mass of 2468 Da. However if tryptophan and cysteine, the C terminal amino acids of bactofencin A are included, a mass of 2757 Da is obtained and subsequent oxidation of cysteines gives the published mass, 2755 Da.
compound,measurement,setting,value
CSCC[C@@H]1NC(=O)CNC(=O)[C@H]([C@@H](C)O)NC(=O)[C@@H]2CCCN2C(=O)[C@H](CCSC)NC(=O)CNC(=O)[C@H](CC(N)=O)NC(=O)[C@H](CC(N)=O)NC(=O)[C@H](Cc2ccc(O)cc2)NC(=O)[C@H](C(C)C)NC(=O)[C@H](CCCNC(=N)N)NC(=O)[C@@H](NC(=O)[C@H](CCCNC(=N)N)NC(=O)[C@H](Cc2c[nH]cn2)NC(=O)[C@H](CCCCN)NC(=O)[C@H](CCCCN)NC(=O)[C@H](CCCNC(=N)N)NC(=O)[C@@H](N)CCCCN)CSSC[C@@H](C(=O)O)NC(=O)[C@H](Cc2c[nH]c3ccccc23)NC(=O)[C@H](CCCNC(=N)N)NC(=O)[C@H](Cc2ccc(O)cc2)NC1=O [bactofencin A] (H-KRKKHRCRVYNNGMPTGMYRWC-OH; disulfide 7-22),"Activity (Minimum Inhibitory Concentration, MIC)","S. aureus DPC5246; DPC5246, pH 6.8",1 µM
same,Activity (MIC),[1]; ATCC 23074,63 µM
same,Activity (MIC),Listeria innocua DPC3572,63 µM
CSCC[C@@H]1NC(=O)CNC(=O)[C@H]([C@@H](C)O)NC(=O)[C@@H]2CCCN2C(=O)[C@H](CCSC)NC(=O)CNC(=O)[C@H](CC(N)=O)NC(=O)[C@H](CC(N)=O)NC(=O)[C@H](Cc2ccc(O)cc2)NC(=O)[C@H](C(C)C)NC(=O)[C@H](CCC(N)=O)NC(=O)[C@@H](NC(=O)[C@H](CCCNC(=N)N)NC(=O)[C@H](Cc2c[nH]cn2)NC(=O)[C@H](CCCCN)NC(=O)[C@H](CCCCN)NC(=O)[C@H](CCCNC(=N)N)NC(=O)[C@@H](N)CCCCN)CSSC[C@@H](C(=O)O)NC(=O)[C@H](Cc2c[nH]c3ccccc23)NC(=O)[C@H](CCCNC(=N)N)NC(=O)[C@H](Cc2ccc(O)cc2)NC1=O [bactofencin R8Q] (H-KRKKHRCQVYNNGMPTGMYRWC-OH; disulfide 7-22; N-terminus assumed),"Activity (Minimum Inhibitory Concentration, MIC)","S. aureus DPC5246; agar well diffusion, 50 µl aliquots of 1 in 4 serial dilutions from 1000 µM in 50 mM sodium phosphate buffer pH 6.8, 37 °C, lowest concentration giving a zone of inhibition, triplicate, values rounded to whole numbers",1 µM
same,Activity (MIC),"[1]; L. monocytogenes ATCC 23074, agar well diffusion",250 µM
same,Activity (MIC),"Listeria innocua DPC3572; L. innocua DPC3572, agar well diffusion",250 µM
KRKKHRCRVYNNGMPTGMYRWS [C22S],"Activity (Minimum Inhibitory Concentration, MIC)","S. aureus DPC5246; DPC5246, pH 6.8",250 µM
same,fold reduction in activity compared with bactofencin A (wild type),S. aureus DPC5246,250 fold
KRKKHRSRVYNNGMPTGMYRWC-OH [C7S],"Activity (Minimum Inhibitory Concentration, MIC)","S. aureus DPC5246; DPC5246, pH 6.8",63 µM
same,fold reduction in activity compared with bactofencin A (wild type),S. aureus DPC5246,63 fold
KRKKHRSRVYNNGMPTGMYRWS [C7S-C22S],"Activity (Minimum Inhibitory Concentration, MIC)","S. aureus DPC5246; DPC5246, pH 6.8",63 µM
"KRKKHRXQVYNNGMPTGMYR [plantaricin ST31, bacteriocin produced by sourdough isolate Lactobacillus plantarum ST31 (Todorov et al. 1999); likely natural R8Q variant of bactofencin A]","activity against Listeria spp., in words",Listeria spp.,inactive
